Laboratory results taken from patent US20090270444A1, “1,7-Naphthyridines” (priority 2004, published 2009).

Key:
Assay type in all cases: biochemical
Human recombinant PDE4B = biological target: T1, Human recombinant PDE4B (Homo sapiens, UniProt Q07343); assay: PDE4B IMAP fluorescence polarisation assay; conditions: human recombinant PDE4B (HSPDE4B2B); accurate to within ±0.5; read-out: PDE4B mean pIC50 (converted)
T1 construct: made in house; host or cells: Saccharomyces cerevisiae strain GL62
T1 sequence (Q07343 1-564 isoform Q07343-2): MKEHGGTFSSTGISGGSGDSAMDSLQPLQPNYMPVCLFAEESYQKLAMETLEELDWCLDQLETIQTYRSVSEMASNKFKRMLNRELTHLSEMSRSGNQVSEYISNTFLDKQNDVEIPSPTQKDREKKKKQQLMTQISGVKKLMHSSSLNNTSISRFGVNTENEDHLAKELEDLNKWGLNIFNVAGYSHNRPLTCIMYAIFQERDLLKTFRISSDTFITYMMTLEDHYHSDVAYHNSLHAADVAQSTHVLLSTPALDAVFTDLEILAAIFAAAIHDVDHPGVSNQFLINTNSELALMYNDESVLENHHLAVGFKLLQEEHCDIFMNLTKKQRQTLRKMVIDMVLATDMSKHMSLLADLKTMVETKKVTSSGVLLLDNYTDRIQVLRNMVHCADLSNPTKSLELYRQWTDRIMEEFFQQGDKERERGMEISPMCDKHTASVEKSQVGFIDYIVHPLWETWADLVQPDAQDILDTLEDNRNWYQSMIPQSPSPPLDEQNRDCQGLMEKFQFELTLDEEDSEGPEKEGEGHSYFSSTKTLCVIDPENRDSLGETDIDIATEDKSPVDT
Text: Human recombinant PDE4B, in particular the 2B splice variant thereof (HSPDE4B2B), is disclosed in WO 94/20079 and also in M. M. McLaughlin et al., “A low Km, rolipram-sensitive, cAMP-specific phosphodiesterase from human brain: cloning and expression of cDNA, biochemical characterisation of recombinant protein, and tissue distribution of mRNA”, J. Biol. Chem., 1993, 268, 6470-6476. For example, in Example 1 of WO 94/20079, human recombinant PDE4B is described as being expressed in the PDE-deficient yeast Saccharomyces cerevisiae strain GL62, e.g. after induction by addition of 150 uM CuSO4, and 100,000×g supernatant fractions of yeast cell lysates are described for use in the harvesting of PDE4B enzyme.
(§1) The ability of compounds to inhibit PDE catalytic activity was determined by IMAP Fluorescence Polarisation (FP) assay (Molecular Devices Ltd code: R8062) in 384-well format. Test compounds (small volume, e.g. 0.5 μl, of solution in DMSO) were preincubated at ambient temperature in black 384-well microtitre plates (supplier: NUNC, code 262260) with PDE enzyme in 10 mM Tris-HCl buffer pH 7.2, 10 mM MgCl2, 0.1% (w/v) bovine serum albumin, 0.05% NaN3 for 10-30 minutes. The enzyme level was set so that reaction was linear throughout the incubation.
For the PDE3, PDE4B and PDE4D assays Fluorescein adenosine 3′,5′-cyclic phosphate (Molecular Devices Ltd code: R7091) was added to give ˜40 nM final concentration. For the PDE5 and PDE6 assays Fluorescein guanosine 3′,5′-cyclic phosphate (Molecular Devices Ltd code: R7090) was added to give ˜40 nM final concentration. Plates were mixed on an orbital shaker for 10 seconds and incubated at ambient temperature for 40 minutes. IMAP binding reagent (Molecular Devices Ltd code: R7207) was added (60 μl of a 1 in 400 dilution in binding buffer of the kit stock solution) to terminate the assay. […] The FP ratio of parallel to perpendicular light was measured using an Analyst™ plate reader (from Molecular Devices Ltd). […] Curves were analysed using ActivityBase and XLfit (ID Business Solutions Limited). Results were expressed as pIC50 values.

Human recombinant PDE4D = Human recombinant PDE4D (Homo sapiens, UniProt Q08499); assay: PDE4D IMAP fluorescence polarisation assay; conditions: human recombinant PDE4D (HSPDE4D3A); accurate to within ±0.5; read-out: PDE4D mean pIC50 (converted)
Human recombinant PDE4D, sequence (Q08499 1-673 isoform Q08499-2): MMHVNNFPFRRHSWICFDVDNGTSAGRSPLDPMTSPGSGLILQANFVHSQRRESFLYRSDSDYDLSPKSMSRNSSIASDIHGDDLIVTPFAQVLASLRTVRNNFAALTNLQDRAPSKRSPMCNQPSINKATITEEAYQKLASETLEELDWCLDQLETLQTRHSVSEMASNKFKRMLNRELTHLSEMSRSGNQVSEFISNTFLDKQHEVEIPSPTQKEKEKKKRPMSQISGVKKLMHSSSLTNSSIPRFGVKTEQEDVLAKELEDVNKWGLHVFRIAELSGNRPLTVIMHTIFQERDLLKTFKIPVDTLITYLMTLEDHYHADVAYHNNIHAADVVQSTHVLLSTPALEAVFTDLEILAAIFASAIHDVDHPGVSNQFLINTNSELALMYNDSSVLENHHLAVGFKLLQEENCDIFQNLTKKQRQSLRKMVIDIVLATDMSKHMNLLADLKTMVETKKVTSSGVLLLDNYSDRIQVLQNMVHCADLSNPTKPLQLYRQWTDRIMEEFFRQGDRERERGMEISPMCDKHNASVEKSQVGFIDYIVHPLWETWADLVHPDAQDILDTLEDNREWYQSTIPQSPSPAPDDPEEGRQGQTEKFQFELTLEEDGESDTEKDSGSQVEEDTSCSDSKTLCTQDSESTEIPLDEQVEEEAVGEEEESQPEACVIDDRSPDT
Procedure: Human recombinant PDE4D (HSPDE4D3A) is disclosed in P. A. Baecker et al., “Isolation of a cDNA encoding a human rolipram-sensitive cyclic AMP phoshodiesterase (PDE IVD)”, Gene, 1994, 138, 253-256.
as §1
(§2) For the PDE3, PDE4B and PDE4D assays Fluorescein adenosine 3′,5′-cyclic phosphate (Molecular Devices Ltd code: R7091) was added to give ˜40 nM final concentration. For the PDE5 and PDE6 assays Fluorescein guanosine 3′,5′-cyclic phosphate (Molecular Devices Ltd code: R7090) was added to give ˜40 nM final concentration. Plates were mixed on an orbital shaker for 10 seconds and incubated at ambient temperature for 40 minutes. IMAP binding reagent (Molecular Devices Ltd code: R7207) was added (60 μl of a 1 in 400 dilution in binding buffer of the kit stock solution) to terminate the assay. Plates were allowed to stand at ambient temperature for 1 hour. The FP ratio of parallel to perpendicular light was measured using an Analyst™ plate reader (from Molecular Devices Ltd). […] Curves were analysed using ActivityBase and XLfit (ID Business Solutions Limited). Results were expressed as pIC50 values.

Human recombinant PDE5 = Human recombinant PDE5 (Homo sapiens, UniProt O76074); assay: PDE5 IMAP fluorescence polarisation assay; conditions: accurate to within ±0.5, read-out: PDE5 mean pIC50 (converted)
Procedure: Human recombinant PDE5 is disclosed in K. Loughney et al., “Isolation and characterisation of cDNAs encoding PDE5A, a human cGMP-binding, cGMP-specific 3′,5′-cyclic nucleotide phosphodiesterase”, Gene, 1998, 216, 139-147.
as §1, §2

PDE6 = biological target: T2, PDE6 (Bos taurus, UniProt P11541+P23439); assay: PDE6 IMAP fluorescence polarisation assay; conditions: PDE6 from bovine retina; accurate to within ±0.5; read-out: PDE6 mean pIC50 (converted)
T2 construct: PDE6 may be purified from bovine retina; from tissue; host or cells: bovine retina
T2 sequence (P11541 2-856 limits assumed): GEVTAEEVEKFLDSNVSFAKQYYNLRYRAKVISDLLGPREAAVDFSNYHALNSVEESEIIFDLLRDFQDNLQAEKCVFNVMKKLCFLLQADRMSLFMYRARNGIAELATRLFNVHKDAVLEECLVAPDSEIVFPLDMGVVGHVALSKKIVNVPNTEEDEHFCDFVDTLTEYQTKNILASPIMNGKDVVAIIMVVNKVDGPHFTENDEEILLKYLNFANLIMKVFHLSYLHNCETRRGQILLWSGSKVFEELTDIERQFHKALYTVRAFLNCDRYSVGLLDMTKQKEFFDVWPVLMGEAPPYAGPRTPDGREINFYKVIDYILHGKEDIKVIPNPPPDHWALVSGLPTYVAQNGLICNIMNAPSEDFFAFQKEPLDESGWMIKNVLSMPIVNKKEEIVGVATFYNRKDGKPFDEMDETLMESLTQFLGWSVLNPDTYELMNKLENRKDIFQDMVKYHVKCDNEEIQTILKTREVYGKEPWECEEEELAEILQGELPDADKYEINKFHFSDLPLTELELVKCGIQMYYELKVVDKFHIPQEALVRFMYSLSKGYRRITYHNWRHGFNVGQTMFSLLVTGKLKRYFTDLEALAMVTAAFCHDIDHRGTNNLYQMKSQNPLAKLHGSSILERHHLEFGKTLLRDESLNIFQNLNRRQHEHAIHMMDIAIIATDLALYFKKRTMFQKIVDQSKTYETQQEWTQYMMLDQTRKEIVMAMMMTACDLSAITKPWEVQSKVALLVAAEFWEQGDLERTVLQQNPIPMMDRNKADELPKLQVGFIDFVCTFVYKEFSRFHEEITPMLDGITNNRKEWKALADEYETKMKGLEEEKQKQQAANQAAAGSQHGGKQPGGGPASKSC
T2 sequence (P23439 2-850 limits assumed): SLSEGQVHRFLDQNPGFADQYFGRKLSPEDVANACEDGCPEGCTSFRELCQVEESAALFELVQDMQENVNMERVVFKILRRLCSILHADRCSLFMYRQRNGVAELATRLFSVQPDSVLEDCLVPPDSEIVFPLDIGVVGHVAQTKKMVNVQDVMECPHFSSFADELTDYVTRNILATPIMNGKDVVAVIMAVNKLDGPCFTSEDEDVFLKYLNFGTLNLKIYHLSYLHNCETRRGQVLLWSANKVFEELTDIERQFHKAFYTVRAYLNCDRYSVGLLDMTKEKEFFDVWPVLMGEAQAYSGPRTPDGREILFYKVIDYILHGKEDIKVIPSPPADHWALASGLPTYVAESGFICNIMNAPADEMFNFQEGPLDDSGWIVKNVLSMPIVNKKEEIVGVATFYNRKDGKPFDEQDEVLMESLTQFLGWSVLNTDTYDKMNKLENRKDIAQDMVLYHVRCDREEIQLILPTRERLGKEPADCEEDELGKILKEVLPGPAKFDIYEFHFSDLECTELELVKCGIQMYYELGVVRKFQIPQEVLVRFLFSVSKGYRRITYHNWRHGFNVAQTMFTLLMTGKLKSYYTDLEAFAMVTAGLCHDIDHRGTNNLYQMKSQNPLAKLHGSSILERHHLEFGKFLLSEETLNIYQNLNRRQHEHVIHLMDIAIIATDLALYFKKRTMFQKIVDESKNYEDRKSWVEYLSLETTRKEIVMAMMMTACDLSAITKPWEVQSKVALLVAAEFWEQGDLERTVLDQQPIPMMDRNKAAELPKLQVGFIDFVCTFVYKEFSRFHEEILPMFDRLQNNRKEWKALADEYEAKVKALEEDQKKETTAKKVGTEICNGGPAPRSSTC
Text: PDE6 may be purified from bovine retina as described by: P. Catty and P. Deterre, “Activation and solubilization of the retinal cGMP-specific phosphodiesterase by limited proteolysis”, Eur. J. Biochem., 1991, 199, 263-269; A. Tar et al. “Purification of bovine retinal cGMP phosphodiesterase”, Methods in Enzymology, 1994, 238, 3-12; and/or D. Srivastava et al. “Effects of magnesium on cyclic GMP hydrolysis by the bovine retinal rod cyclic GMP phosphodiesterase”, Biochem. J., 1995, 308, 653-658.
as §1, §2

| IC50 (Human recombinant PDE4B) | IC50 (Human recombinant PDE4D) | IC50 (Human recombinant PDE5) | IC50 (PDE6) | SMILES |
| --- | --- | --- | --- | --- |
| 0.398 nM | 0.631 nM | > 10000 nM | > 10000 nM | Cc1nc([S+](C)[O-])cc2c(Nc3cccc4c3CCO4)c(C(N)=O)cnc12 (racemic) [Example 3, (±)-4-(2,3-Dihydro-1-benzofuran-4-ylamino)-8-methyl-6-(methylsulfinyl)-1,7-naphthyridine-3-carboxamide] |
| 0.316 nM | 0.316 nM | > 10000 nM | > 10000 nM | CSc1cc2c(Nc3cccc4c3CCO4)c(C(N)=O)cnc2c(C)n1 [Example 1, 4-(2,3-Dihydro-1-benzofuran-4-ylamino)-8-methyl-6-(methylthio)-1,7-naphthyridine-3-carboxamide] |
| 0.126 nM | 0.2 nM | > 10000 nM | > 10000 nM | Cc1nc(S(C)(=O)=O)cc2c(Nc3cccc4c3CCO4)c(C(N)=O)cnc12 [Example 2, 4-(2,3-Dihydro-1-benzofuran-4-ylamino)-8-methyl-6-(methylsulfonyl)-1,7-naphthyridine-3-carboxamide] |
